The text below walks through data of ChEMBL document CHEMBL3817824, “Synthesis and biological evaluation of new [1,2,4]triazolo[4,3-a]pyridine derivatives as potential c-Met inhibitors” (Bioorg Med Chem, 2016).

Series [1] can be described thus: Cytotoxicity against human SNU5 cells assessed as reduction in cell survival incubated for 3 days by cell titre-glo assay. The conditions noted are these: SNU-5, 72 h.
Another series relates to MKN-45. As to the kind of experiment: Antitumor activity against human MKN45 cells xenografted in ig dosed nude BALB/c mouse measured twice every week. The class given is functional, organism-based.
The next series deals with Huh-7. As to the kind of experiment: Inhibition of ERK phosphorylation in human HuH7 cells at 100 to 1000 nM after 6 to 24 hrs by Western blot analysis. The class given is cell-based.
In series [2] the target is RAC-alpha serine/threonine-protein kinase (Homo sapiens, UniProt P31749). The conditions noted are these: Huh-7, 100 to 1000 nM.
Description: Inhibition of AKT phosphorylation in human HuH7 cells at 100 to 1000 nM after 6 to 24 hrs by Western blot analysis
Series [3] relates to NCI-H1993. As to the kind of experiment: Antitumor activity against human NCI-H1993 cells xenografted in ig dosed nude BALB/c mouse measured twice every week. The class given is functional, organism-based.
Series [4] concerns the target Hepatocyte growth factor receptor (Homo sapiens, UniProt P08581). As to the kind of experiment: Inhibition of c-Met (unknown origin) incubated for 1 hr by spectrophotometric analysis.
Series [5] in a line: Acute toxicity in ig dosed nude BALB/c mouse administered as qd measured for 14 days. As to conditions: in vivo, po. The class given is organism-based.
In series [6] the test system is Mus musculus. Kind of series: Toxicity in nude BALB/c mouse assessed as effect on body weight at 15 to 225 mg/kg, ig qd for treated for 28 days followed by rehabiliation for 28 days measured during compound dosing and rehabilitation period relative to vehicle control. The conditions noted are these: in vivo, po, 672 h. The class given is organism-based.
Series [7] is described as follows: Antitumor activity against human MKN45 cells xenografted in nude BALB/c mouse assessed as inhibitory rate at 10 mg/kg, ig measured twice every week. As to conditions: MKN-45, po, read-out: TGI. The class given is functional.
Series [8] relates to NCI-H1993. As to the kind of experiment: Antitumor activity against human NCI-H1993 cells xenografted in nude BALB/c mouse assessed as inhibitory rate at 30 mg/kg, ig measured twice every week. The class given is functional. As to conditions: NCI-H1993, po, read-out: TGI.
Series [9] is described as follows: Antitumor activity against human MKN45 cells xenografted in nude BALB/c mouse assessed as inhibitory rate at 30 mg/kg, ig measured twice every week. The class given is functional. The conditions noted are these: MKN-45, po, read-out: TGI.
Series [10] is described as follows: Toxicity in ig dosed nude BALB/c mouse administered as qd treated for 28 days followed by rehabilitation for 28 days. The conditions noted are these: in vivo, po. The class given is organism-based.
The nature of series [11]: Antitumor activity against human MKN45 cells xenografted in nude BALB/c mouse assessed as inhibitory rate at 60 mg/kg, ig measured twice every week. As to conditions: MKN-45, po, read-out: TGI. The class given is functional.
In series [12] the test system is Mus musculus. Kind of series: Toxicity in nude BALB/c mouse assessed as clinical pathologies at 15 to 225 mg/kg, ig qd for treated for 28 days followed by rehabiliation for 28 days measured on day 56 relative to vehicle control. The class given is organism-based. As to conditions: in vivo, po, 672 h.
In series [13] the test system is NCI-H1993. Kind of series: Antitumor activity against human NCI-H1993 cells xenografted in nude BALB/c mouse assessed as inhibitory rate at 60 mg/kg, ig measured twice every week. The class given is functional. As to conditions: NCI-H1993, po, read-out: TGI.
Series [14] in a line: Apparent oral clearance in Sprague-Dawley rat at 5 mg/kg. The class given is ADME, organism-based. The conditions noted are these: in vivo.
The test system of series [15] is NCI-H1993. Kind of series: Antitumor activity against human NCI-H1993 cells xenografted in nude BALB/c mouse assessed as inhibitory rate at 10 mg/kg, ig measured twice every week. The class given is functional.
Series [16] has as its system Mus musculus. As to the kind of experiment: Acute toxicity in nude BALB/c mouse assessed as clinical pathologies at 300 to 600 mg/kg, ig qd after 28 days. The class given is organism-based. The conditions noted are these: in vivo, po, 672 h.
Series [17] can be described thus: Half life in Sprague-Dawley rat at 5 mg/kg. The class given is ADME, organism-based. As to conditions: in vivo.
Series [18] is described as follows: AUC in Sprague-Dawley rat at 5 mg/kg. The class given is ADME, organism-based. The conditions noted are these: in vivo.
Series [19] can be described thus: Mean residence time in Sprague-Dawley rat at 5 mg/kg. The class given is ADME, organism-based. As to conditions: in vivo.
Series [20] is described as follows: Apparent volume of distribution during terminal phase in Sprague-Dawley rat at 5 mg/kg. The class given is ADME, organism-based. As to conditions: in vivo, read-out: Vz/F.
Series [21] can be described thus: Cmax in Sprague-Dawley rat at 5 mg/kg. The class given is ADME, organism-based. On the set-up: dose 5 mg/kg. The conditions noted are these: in vivo.
Series [22] in a line: Cytotoxicity against human HuH7 cells assessed as reduction in cell survival incubated for 3 days by cell titre-glo assay. The conditions noted are these: Huh-7, 72 h. The class given is functional, cell-based.
In a further series the test system is A549. As to the kind of experiment: Cytotoxicity against human A549 cells assessed as reduction in cell survival incubated for 3 days by cell titre-glo assay. The class given is functional, cell-based. As to conditions: A549, 72 h.
Series [23] is described as follows: Cytotoxicity against human MHCC97H cells assessed as reduction in cell survival incubated for 3 days by cell titre-glo assay. The class given is functional, cell-based. The conditions noted are these: 72 h.
The subject of the next series is NCI-N87. As to the kind of experiment: Cytotoxicity against human NCI-N87 cells assessed as reduction in cell survival incubated for 3 days by cell titre-glo assay. As to conditions: NCI-N87, 72 h. The class given is functional, cell-based.
The nature of series [24]: Cytotoxicity against human MHCC97L cells assessed as reduction in cell survival incubated for 3 days by cell titre-glo assay. The conditions noted are these: 72 h. The class given is functional, cell-based.
A short description of series [25]: Cytotoxicity against human MKN45 cells assessed as reduction in cell survival incubated for 3 days by cell titre-glo assay. The class given is functional, cell-based. The conditions noted are these: MKN-45, 72 h.
The next series relates to NCI-H1975. As to the kind of experiment: Cytotoxicity against human NCI-H1975 cells assessed as reduction in cell survival incubated for 3 days by cell titre-glo assay. As to conditions: NCI-H1975, 72 h. The class given is functional, cell-based.
A short description of series [26]: Cytotoxicity against human HCCLM3 cells assessed as reduction in cell survival incubated for 3 days by cell titre-glo assay. The class given is functional, cell-based. As to conditions: HCCLM3, 72 h.
The subject of series [27] is NCI-H1993. Kind of series: Cytotoxicity against human NCI-H1993 cells assessed as reduction in cell survival incubated for 3 days by cell titre-glo assay. The class given is functional, cell-based. The conditions noted are these: NCI-H1993, 72 h.

Active and inactive are the calls of the source. The calls are words filed in the database; no cut-off is given here.

For `COCCN1C(=O)COc2c1cnc1ccc(Sc3nnc4c(F)cc(-c5cnn(C)c5)cn34)cc21`, in [1], the IC50 came to 4.5 nM.
As to `CN1C(=O)COc2c1cnc1ccc(Sc3nnc4c(F)cc(-c5cnn(C)c5)cn34)cc21`, the TGI entry with MKN-45 and in the series on NCI-H1993 [3] was “Dose-dependent effect” throughout. Further, the inhibition entry (in the series on Huh-7; in series [2]) was “inactive” in each case.
Take `COCCN1C(=O)COc2c1cnc1ccc(Sc3nnc4ccc(-c5cnn(C)c5)cn34)cc21`: in series [1], the 50% inhibitory concentration (IC50) was found to be 19.1 nM.
On to `Cn1cc(-c2ccc3nnc(Sc4ccc5ncc6c(c5c4)OCC(=O)N6)n3c2)cn1`, for which the IC50 in [1] came out at 85.8 nM.
Same read-out and setting: next, `Cn1cc(-c2cc(F)c3nnc(Sc4ccc5ncc6c(c5c4)OCCN6C(=O)C4CC4)n3c2)cn1`: 12.3 nM; `Cn1cc(-c2cc(F)c3nnc(Sc4ccc5ncc6c(c5c4)OC[C@@H]4CCCN64)n3c2)cn1`: 327 nM; `Cn1cc(-c2cc(F)c3nnc(Sc4ccc5ncc6c(c5c4)OC[C@H]4CCCN64)n3c2)cn1`: 29.2 nM.
Consider `CN1C(=O)COc2c1cnc1ccc(Sc3nnc4c(OC(F)F)cc(-c5cnn(C)c5)cn34)cc21`, for which the IC50 in [4] and in series [1] was more than 1000 nM each time.
With `CN1C(=O)COc2c1cnc1ccc(Sc3nnc4c(F)cc(-c5cnn(C)c5)cn34)cc21.CS(=O)(=O)O`, the no-observed-adverse-effect level (NOAEL) at 336 h in series [5] is 600 mg/kg/day. For the same molecule, the Activity entry with Mus musculus [6], with Mus musculus [12] and with Mus musculus [16] was “Non-toxic” throughout. The inhibition in vivo at 10 mg/kg is 29.5% in [7] and 24.4% with NCI-H1993 [15] (NCI-H1993, po, read-out: TGI). In addition, the inhibition in vivo at 30 mg/kg in the series on NCI-H1993 [8] was determined as 19.5%; in series [9], 34.2%. For the same molecule, in series [10], the NOAEL at 672 h is 225 mg/kg/day. The figures for the inhibition in vivo at 60 mg/kg (in [11]; in the series with NCI-H1993 [13]) were 61.4% and 24.9%, respectively. In addition, in [14], the CL/F stood at 0.68 mL/min/kg.
With `Cn1cc(-c2cc(F)c3nnc(Sc4ccc5ncc6c(c5c4)OCC(=O)N6)n3c2)cn1`, in [1], the 50% inhibitory concentration (IC50) came to 17.8 nM.
Regarding `Cn1cc(-c2ccc3nnc(C(F)(F)c4ccc5ncccc5c4)n3n2)cn1` [JNJ-38877605], the half-life in [17] was 2.97 h. In series [18], this molecule displayed an AUC of 17300 ng·h/mL. This molecule also gave an MRT in series [19] of 4.9 h. Also, in series [20], the Vd/F is 1.48 L/kg. The molecule also yielded a maximum concentration (Cmax) in [21] of 2370 ng/mL. Moreover, the CL/F in series [14] was 5.81 mL/min/kg.
Consider `CN1C(=O)COc2c1cnc1ccc(Sc3nnc4ccc(-c5cnn(C)c5)cn34)cc21`, for which the half-inhibitory concentration (IC50) in [1] was determined as 3 nM.
For `Cn1cc(-c2ccc3nnc(Sc4ccc5ncccc5c4)n3n2)cn1` [SGX-523], the IC50 in series [22] was more than 10000 nM; in the series with A549, more than 10000 nM; in series [23] it was 11 nM; in the series with NCI-N87, more than 10000 nM; in [24], 18 nM; in series [25] it was 15 nM. Also, the IC50 in the series on NCI-H1975 was more than 10000 nM; in series [26], 24 nM; in [1], 3.9 nM; with NCI-H1993 [27], 25 nM. Besides, in series [7], the inhibition in vivo at 10 mg/kg came out at 11.2%. In the series with NCI-H1993 [15], the TGI result was “inactive”.
